For one test, the target named is T1, Protein skinhead-1 (Caenorhabditis elegans, UniProt P34707).
T1 sequence (P34707 whole entry): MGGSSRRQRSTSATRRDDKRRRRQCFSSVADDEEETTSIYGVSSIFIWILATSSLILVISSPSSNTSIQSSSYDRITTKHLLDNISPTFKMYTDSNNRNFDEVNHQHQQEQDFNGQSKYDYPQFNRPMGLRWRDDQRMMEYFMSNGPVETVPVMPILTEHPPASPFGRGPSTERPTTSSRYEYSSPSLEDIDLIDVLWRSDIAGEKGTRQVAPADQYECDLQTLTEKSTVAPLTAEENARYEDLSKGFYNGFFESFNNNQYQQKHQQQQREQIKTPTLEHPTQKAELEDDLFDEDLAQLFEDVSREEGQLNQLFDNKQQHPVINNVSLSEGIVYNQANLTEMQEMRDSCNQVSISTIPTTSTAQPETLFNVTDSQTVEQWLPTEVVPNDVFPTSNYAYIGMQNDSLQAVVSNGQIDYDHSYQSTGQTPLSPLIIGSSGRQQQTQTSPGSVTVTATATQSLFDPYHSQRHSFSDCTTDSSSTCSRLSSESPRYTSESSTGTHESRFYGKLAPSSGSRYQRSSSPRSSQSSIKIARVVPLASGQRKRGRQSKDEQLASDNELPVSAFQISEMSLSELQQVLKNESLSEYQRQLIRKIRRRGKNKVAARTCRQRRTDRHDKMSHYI
The class given is functional.

The test system of another test is H9c2. As to the kind of experiment: cells. Type of test: functional, cell-based. As to conditions: Rattus norvegicus, H9c2, Myocardium.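 Note: confirmatory concentration-response retest of ultra-high-throughput screening hits for modulation of myocardial damage; cell death induced by hydrogen peroxide oxidative stress; compound pretreatment for 60 min then peroxide exposure for 2 h; potency is for protecting the cells against peroxide damage rather than for killing them.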
The next test concerns the target Cytochrome P450 2C19 (Homo sapiens, UniProt P33261). As to the kind of experiment: Cytochrome panel assay with activity outcomes. Panel member name: p450-cyp2c19 Compounds with AC50 equal or less than 10 uM are considered active. Particulars: read-out: AC50. The class given is functional.
The next test addresses T2, Cytochrome P450 1A2 (Homo sapiens, UniProt P05177).
T2 sequence (P05177 whole entry): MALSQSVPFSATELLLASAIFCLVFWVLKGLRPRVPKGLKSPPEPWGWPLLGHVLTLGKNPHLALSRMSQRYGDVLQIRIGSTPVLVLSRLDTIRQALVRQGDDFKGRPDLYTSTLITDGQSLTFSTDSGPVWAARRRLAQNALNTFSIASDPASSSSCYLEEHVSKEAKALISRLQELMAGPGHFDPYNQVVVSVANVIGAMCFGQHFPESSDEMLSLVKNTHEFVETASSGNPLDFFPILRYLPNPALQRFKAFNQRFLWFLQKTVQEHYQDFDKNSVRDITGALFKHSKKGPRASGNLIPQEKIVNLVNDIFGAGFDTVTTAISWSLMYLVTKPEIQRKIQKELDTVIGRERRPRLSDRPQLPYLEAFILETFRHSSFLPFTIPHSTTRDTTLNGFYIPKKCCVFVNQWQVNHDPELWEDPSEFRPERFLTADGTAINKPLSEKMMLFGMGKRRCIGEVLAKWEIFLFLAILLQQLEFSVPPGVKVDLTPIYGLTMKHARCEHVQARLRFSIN

The target in test [1] is Voltage-dependent T-type calcium channel subunit alpha-1H (Homo sapiens, UniProt O95180). The class given is functional.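 Note: channel activity triggered by adding a high calcium stimulation buffer.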
Chain of Voltage-dependent T-type calcium channel subunit alpha-1H (O95180 whole entry): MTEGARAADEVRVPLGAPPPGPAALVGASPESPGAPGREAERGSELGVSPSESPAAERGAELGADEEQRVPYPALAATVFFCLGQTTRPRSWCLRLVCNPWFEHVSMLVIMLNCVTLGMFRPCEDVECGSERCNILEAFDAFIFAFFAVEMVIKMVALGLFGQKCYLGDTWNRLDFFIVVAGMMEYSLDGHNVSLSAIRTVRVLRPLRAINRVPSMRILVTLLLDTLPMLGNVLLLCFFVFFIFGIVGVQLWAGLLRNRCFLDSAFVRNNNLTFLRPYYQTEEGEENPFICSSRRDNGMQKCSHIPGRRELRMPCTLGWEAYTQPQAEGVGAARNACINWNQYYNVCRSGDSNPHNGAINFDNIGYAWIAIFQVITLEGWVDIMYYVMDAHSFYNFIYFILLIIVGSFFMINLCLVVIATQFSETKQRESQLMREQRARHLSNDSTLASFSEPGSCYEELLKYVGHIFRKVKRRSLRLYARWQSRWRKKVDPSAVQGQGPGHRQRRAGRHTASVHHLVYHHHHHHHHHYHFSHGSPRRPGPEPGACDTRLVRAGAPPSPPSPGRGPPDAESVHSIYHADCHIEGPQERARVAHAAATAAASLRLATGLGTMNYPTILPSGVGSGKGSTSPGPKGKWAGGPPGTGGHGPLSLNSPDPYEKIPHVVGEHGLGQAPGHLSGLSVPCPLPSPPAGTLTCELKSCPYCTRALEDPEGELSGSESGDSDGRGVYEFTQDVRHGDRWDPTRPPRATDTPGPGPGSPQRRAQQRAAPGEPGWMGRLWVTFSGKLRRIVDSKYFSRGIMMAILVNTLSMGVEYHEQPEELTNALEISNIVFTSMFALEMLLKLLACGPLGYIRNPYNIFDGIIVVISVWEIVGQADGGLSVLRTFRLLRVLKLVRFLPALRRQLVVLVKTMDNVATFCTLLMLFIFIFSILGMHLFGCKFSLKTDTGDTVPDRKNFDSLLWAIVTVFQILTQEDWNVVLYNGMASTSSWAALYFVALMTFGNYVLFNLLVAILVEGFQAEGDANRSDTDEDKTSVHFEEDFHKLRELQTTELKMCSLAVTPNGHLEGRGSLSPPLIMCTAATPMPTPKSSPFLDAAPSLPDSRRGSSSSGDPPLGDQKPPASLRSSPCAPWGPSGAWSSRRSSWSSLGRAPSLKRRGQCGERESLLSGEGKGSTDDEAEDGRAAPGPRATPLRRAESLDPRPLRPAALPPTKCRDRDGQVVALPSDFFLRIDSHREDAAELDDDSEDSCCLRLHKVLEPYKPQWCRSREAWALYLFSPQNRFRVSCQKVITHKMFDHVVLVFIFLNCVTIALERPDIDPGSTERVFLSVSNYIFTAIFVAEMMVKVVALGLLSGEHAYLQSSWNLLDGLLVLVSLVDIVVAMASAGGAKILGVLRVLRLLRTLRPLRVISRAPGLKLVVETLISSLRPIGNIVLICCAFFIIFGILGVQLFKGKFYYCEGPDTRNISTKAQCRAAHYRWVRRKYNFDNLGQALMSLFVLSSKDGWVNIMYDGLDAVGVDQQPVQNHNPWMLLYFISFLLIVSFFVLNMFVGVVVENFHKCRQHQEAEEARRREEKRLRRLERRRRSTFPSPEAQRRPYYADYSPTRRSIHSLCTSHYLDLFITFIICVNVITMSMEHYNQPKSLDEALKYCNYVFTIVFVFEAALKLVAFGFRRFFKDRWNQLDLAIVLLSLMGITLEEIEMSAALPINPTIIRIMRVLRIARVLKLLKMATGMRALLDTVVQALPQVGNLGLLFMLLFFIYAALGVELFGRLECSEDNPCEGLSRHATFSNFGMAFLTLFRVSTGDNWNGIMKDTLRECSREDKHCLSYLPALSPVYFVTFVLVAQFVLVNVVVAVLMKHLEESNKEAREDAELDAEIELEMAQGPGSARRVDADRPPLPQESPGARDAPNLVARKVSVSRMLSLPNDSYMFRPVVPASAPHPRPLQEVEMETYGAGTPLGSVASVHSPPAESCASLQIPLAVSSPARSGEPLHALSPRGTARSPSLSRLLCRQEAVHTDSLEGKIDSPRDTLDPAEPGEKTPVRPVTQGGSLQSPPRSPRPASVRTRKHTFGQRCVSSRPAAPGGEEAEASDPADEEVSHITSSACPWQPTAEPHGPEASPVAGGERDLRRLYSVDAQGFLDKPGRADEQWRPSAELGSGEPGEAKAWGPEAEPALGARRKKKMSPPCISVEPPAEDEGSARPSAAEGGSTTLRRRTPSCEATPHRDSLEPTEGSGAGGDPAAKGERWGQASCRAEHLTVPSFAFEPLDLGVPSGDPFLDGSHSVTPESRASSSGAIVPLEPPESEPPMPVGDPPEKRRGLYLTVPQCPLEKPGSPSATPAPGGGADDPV
The nature of test [2]: microbe, parasite or virus in culture. Type of test: functional. As to conditions: Mycobacterium tuberculosis.
Test [3] in a line: HEK-293T viability loss after treatment – luminescence, T-cell screen hits, cytotoxicity control for TCR NF-kB inhibitor project, dose response (AID 489026).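 Note: cells exposed to compound about 14 hours before the viability readout.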 Type of test: functional, cell-based.
The target in another test is Cytochrome P450 2D6 (Homo sapiens, UniProt P10635).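 Note: CYP2D6 member of a cytochrome P450 panel assay.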
Chain of Cytochrome P450 2D6 (P10635 whole entry): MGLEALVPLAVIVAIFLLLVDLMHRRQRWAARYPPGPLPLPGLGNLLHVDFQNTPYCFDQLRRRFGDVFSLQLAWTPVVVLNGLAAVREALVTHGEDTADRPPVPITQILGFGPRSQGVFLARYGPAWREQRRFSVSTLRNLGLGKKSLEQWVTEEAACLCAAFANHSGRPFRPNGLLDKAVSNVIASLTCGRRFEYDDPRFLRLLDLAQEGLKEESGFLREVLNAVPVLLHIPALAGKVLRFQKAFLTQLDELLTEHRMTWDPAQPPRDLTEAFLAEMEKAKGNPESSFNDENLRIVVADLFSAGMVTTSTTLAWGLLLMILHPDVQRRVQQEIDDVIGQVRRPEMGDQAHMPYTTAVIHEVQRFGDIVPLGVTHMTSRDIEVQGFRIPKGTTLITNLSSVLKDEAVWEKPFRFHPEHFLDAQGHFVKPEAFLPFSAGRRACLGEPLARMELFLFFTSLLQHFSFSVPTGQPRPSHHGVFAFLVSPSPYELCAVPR
The subject of another test is H4. The test is described as follows: Luminescence Cell-Based Dose Response HTS to Identify Activators of 5'UTR Stem-Loop Driven Prion Protein mRNA Translation in H4 Neuroglioblastoma Cells. [Related pubchem assays: 1829 (Project Summary), 1814 (Primary HTS)]. Type of test: functional. As to conditions: Homo sapiens.
A further test concerns the target Nonstructural protein 1 (Influenza A virus, UniProt Q194T2). Type of test: functional, Influenza A virus (A/California/07/2009(H1N1)).
Test [4] can be described thus: Luminescence Cell-Based Dose Confirmation HTS to Identify Activators of 5'UTR Stem-Loop Driven Alpha-Synuclein mRNA Translation in H4 Neuroglioblastoma Cells. [Related pubchem assays: 1829 (Project Summary), 1814 (Primary HTS)]. The class given is functional.
A short description of test [5]: Luminescence Cell-Based Dose Response HTS to Identify Activators of Luciferase Translation or Activity in H4 […] Cells. [Related pubchem assays: 1829 (Project Summary), 1814 (Primary HTS)]. Type of test: functional.
Test [6] is described as follows: reduction of Shn3 3'UTR-driven luciferase in osteoblasts – cell-based, Clone20 osteoblasts, firefly luciferase, cherry-picked, dose response (AID 624132).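 Note: firefly luciferase luminescence from reporter carrying the Shn3 3'UTR in osteoblasts.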 Type of test: functional.
Test [7] can be described thus: loss of viability in HepG2 cells – cell-based, CellTiter-Glo, cherry-picked, cytotoxicity control for Shn3 inhibitor project, dose response (AID 624134). The class given is functional.
Test [8] in a line: non-specific 3'UTR reporter inhibition in Clone20-Shn3RL – cell-based, Renilla luciferase, cherry-picked, counter-screen for Shn3 inhibitor project, dose response (AID 624133). The class given is functional.
A further test relates to Streptococcus. The test is described as follows: GAS UMAA2166 growth inhibition – luminescence, BacTiterGlo, counter-screen for streptokinase expression inhibitor project, dose response (AID 1915).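 Note: potency for reduction of bacterial viability or growth.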 Type of test: functional, organism-based.
For another test, the target named is T3, Streptokinase A (Streptococcus pyogenes serotype M1, UniProt P10520).
T3 sequence (P10520 whole entry): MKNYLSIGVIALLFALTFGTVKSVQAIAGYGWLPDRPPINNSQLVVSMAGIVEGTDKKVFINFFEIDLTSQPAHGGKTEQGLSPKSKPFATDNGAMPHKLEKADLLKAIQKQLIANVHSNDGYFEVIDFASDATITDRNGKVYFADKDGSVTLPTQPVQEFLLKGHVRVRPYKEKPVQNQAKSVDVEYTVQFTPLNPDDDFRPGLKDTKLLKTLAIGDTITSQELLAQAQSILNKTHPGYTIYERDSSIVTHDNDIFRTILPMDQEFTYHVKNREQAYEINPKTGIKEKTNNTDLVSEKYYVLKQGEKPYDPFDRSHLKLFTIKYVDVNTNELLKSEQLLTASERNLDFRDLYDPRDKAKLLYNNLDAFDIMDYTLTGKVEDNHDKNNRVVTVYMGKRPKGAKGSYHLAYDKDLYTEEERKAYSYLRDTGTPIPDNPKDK
As to the kind of experiment: viability-normalized secreted streptokinase activity reduction – plasminogen activation absorbance, OD405, dose response (AID 1914).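 Note: secreted streptokinase activity via plasminogen activation per viability signal from cell pellet.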 The class given is functional, Streptococcus pyogenes M1 GAS.

The test system of test [9] is Streptococcus sp. 'group A'. As to the kind of experiment: Streptococcus pyogenes SK(-)GAS viability under kanamycin – luminescence, BacTiterGlo, confirmation, counter-screen for streptokinase expression inhibitor project, dose response (AID 1900). The class given is functional, organism-based.
Test [10] can be described thus: Luminescence Cell-Based Dose Retest to Confirm Inhibitors of Cancer Stem Cells. [Related pubchem assays (depositor defined):AID2717, AID2721]. Type of test: functional. Particulars: Homo sapiens.
The next test has as its system INS1. As to the kind of experiment: INS-1E survival protection against cytokine death – cell-based, luminescence, retest, dose response (AID 449756).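 Note: cell death triggered by IL-1 beta plus TNF-alpha plus IFN-gamma mixture; protective hits raise ATP signal compared with cytokine alone wells.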 Type of test: functional. As to conditions: Rattus norvegicus.
Test [11] in a line: cells. The class given is functional, cell-based.
Test [12] can be described thus: cells. The class given is functional, cell-based. The source holds these as a separate data set.

The source made the active and inactive calls.

Chain of Nonstructural protein 1 (Q194T2 whole entry): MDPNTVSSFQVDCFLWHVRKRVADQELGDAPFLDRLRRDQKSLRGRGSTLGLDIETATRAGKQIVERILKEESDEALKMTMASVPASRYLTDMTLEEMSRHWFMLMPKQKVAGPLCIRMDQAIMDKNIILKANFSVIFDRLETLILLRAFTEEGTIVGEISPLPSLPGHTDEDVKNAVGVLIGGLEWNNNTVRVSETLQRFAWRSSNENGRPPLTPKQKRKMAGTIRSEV
Chain of Cytochrome P450 2C19 (P33261 whole entry): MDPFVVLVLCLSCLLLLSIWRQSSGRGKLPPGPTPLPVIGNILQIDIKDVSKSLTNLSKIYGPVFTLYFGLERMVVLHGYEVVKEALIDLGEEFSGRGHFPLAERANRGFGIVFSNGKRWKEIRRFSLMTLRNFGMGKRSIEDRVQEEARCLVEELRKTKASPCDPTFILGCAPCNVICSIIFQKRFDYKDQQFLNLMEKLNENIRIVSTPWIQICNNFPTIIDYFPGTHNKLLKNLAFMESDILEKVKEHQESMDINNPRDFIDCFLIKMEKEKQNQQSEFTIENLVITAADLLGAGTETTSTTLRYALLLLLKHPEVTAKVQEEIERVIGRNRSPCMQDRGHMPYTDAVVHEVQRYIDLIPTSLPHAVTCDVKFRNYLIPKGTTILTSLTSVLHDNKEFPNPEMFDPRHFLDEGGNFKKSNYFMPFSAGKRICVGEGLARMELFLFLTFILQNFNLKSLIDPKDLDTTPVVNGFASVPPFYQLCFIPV

Take `O=[N+]([O-])c1ccc(Nc2ccccc2)cc1`: the IC50 at Protein skinhead-1 is 12.7 µM (active).
In the case of `COc1cccc(/C=N/NC(=O)c2nc(-c3ccccc3)cc(-c3ccccc3)n2)c1`, the IC50 with H9c2 is > 79 µM (inactive). Also, the results for the AC50 at Cytochrome P450 2C19 and at Cytochrome P450 1A2 were 0.794 µM (inconclusive) and 3.16 µM (inconclusive), respectively.
In the case of `Cc1[nH]c2ccccc2c1C1C(c2ccccc2)=NN=C(C(C)C)N1O` (centres undefined), the EC50 in test [1] was 16.1 µM (active).
In the case of `COc1ccc(-c2nc(NC(=O)c3[nH]c(C)c(C(C)=O)c3C)sc2C)cc1`, in test [2], the CC50 is > 40 µM (active).
`Cc1ccc(C)c(CSc2nc(O)c3c[nH]nc3n2)c1`: the IC50 in test [3] was > 80 µM (inactive).
Consider `Cc1ccc(N(C)C(=O)Oc2cccc3ccc(C)nc23)cc1`, for which the EC50 in [1] is 12.3 µM (active).
As for `C=CCNc1ncnc2sc(SC)nc12`, the IC50 on Protein skinhead-1 was > 100 µM (inactive).
Take `O=C(CCn1c(=O)oc2ccccc21)N(Cc1ccccc1)c1ccccc1`: in the test on H9c2, the IC50 is > 79 µM (inactive).
As for `CC(c1ccccc1)N1C(=O)c2cccnc2C1=O` (centres undefined), the IC50 on Protein skinhead-1 is > 100 µM (inactive).
With `c1ccc(CN2c3ccccc3-c3nc4ccccc4n3C2c2ccccn2)cc1` (centres undefined), at Cytochrome P450 2D6, the AC50 is 15.8 µM (inconclusive). The EC50 in test [1] was 1.94 µM (active).
Take `COC(=O)c1nc(-c2ccccc2)oc1N(C)C`: on Protein skinhead-1, the IC50 is > 100 µM (inactive).
On to `O=C(Nc1ccccc1)N1CCCC(c2nc(-c3ccc(F)cc3)no2)C1` (centres undefined), for which, on Cytochrome P450 2C19, the half-maximal activity concentration (AC50) was 39.8 µM (inconclusive). Besides, the half-maximal effective concentration (EC50) in test [1] is 1.52 µM (active).
Take `COc1ccc(-c2cc(-c3nnc(COC(=O)c4ccncc4)o3)c3ccccc3n2)cc1OC`: the IC50 in the test on H9c2 was 9.82 µM (active).
With `O=C(COc1ccccc1)Nc1nnc(-c2ccc(Cl)s2)o1`, the EC50 in test [1] is 25.7 µM (active).
As for `O=C(Nc1nc2c(s1)CCc1ccccc1-2)c1ccco1`, at Protein skinhead-1, the IC50 was > 100 µM (inactive).
Take `O=C(CN1C(=O)COc2ccccc21)Nc1ccc(F)cc1`: the EC50 with H4 was 113 µM (active); in test [4], 11.9 µM (active); in test [5], 13.8 µM (active). The IC50 on Nonstructural protein 1 was 3.73 µM (active).
Turning to `S=C(NC1CCCCC1)N(CCc1nc2ccccc2[nH]1)C1CCCC1`, the EC50 in [1] is 5.18 µM (active).
Regarding `COc1cccc(C(=O)NCC(=O)N2CCC3(CC2)NCCc2[nH]cnc23)c1`, on Protein skinhead-1, the IC50 is > 100 µM (inactive).
For `O=C(Nc1nccs1)c1ccc(-c2ccccc2[N+](=O)[O-])o1`, the IC50 at Protein skinhead-1 was > 100 µM (inactive).
The same measure, in the same setting: in the case of `CCN(CC)S(=O)(=O)c1ccc(N(C)CCc2ccc(OC)c(OC)c2)nc1` it was > 100 µM (inactive).
For the molecule `CC(Sc1nnc(NC2CCCCC2)s1)C(=O)Nc1ccc2c(c1)C(=O)c1ccccc1C2=O` (centres undefined), the CC50 in [2] is 29.7 µM (active).
As for `O=C(Nc1cccc2ccccc12)OC1C=CS(=O)(=O)C1` (centres undefined), in [3], the IC50 was > 80 µM (inactive).
Take `S=C(NCc1ccccc1)NCC1COc2ccccc2O1` (centres undefined): in [1], the EC50 was 3.17 µM (active).
As to `Fc1ccc2[nH]c3c(NCc4ccccc4)ncnc3c2c1`, the AC50 is 3.09 µM (active) in test [6], 30.1 µM (active) in [7] and 13.1 µM (active) in test [8]. Besides, the CC50 in test [2] is > 40 µM (active).
Turning to `O=C(CN(Cc1ccccc1)C(=O)c1cc2c(s1)CCC2)NCc1cccs1`, the EC50 in test [1] is 5.32 µM (active).
In the case of `CC(OC(=O)Cc1nnc(O)c2ccccc12)C(=O)Nc1ccc(Cl)cn1` (centres undefined), the EC50 in the test on Streptococcus was 23.1 µM (active); on Streptokinase A it was > 150 µM (not active); in [9], 9.99 µM (active). Moreover, in the test with H9c2, the IC50 is 7.17 µM (active).
`CCOC(=O)N1CCN(S(=O)(=O)c2ccc(C(=O)NNc3nc4cc(C)cc(C)c4s3)cc2)CC1`: the IC50 on Nonstructural protein 1 was > 100 µM (active). Besides, the AC50 in test [10] is 3.69 µM (active); in the test on INS1, 3.67 µM (active).
`Cc1ccc(NC(=O)CSc2n[nH]c(-c3ccccn3)n2)cc1`: the IC50 at Nonstructural protein 1 was 6.74 µM (active).
With `COC(=O)[C@@]12CCCCN1[C@H](c1ccc(-c3cc(C(C)=O)cs3)cc1)[C@H]1C(=O)N(C)C(=O)[C@H]12`, the IC50 with H9c2 was > 79 µM (inactive).
As for `O=C(Oc1ccccc1)N1CCN(c2ccc(F)cc2)CC1`, at Protein skinhead-1, the IC50 is 78.7 µM (inactive).
`COc1ccc(-c2cc(C(=O)N(C)CC(=O)Nc3cccc(F)c3)c3ccccc3n2)cc1`: in test [2], the CC50 was 36.5 µM (active).
On the same count and under the same terms, next, `O=C(CSC(=S)N1CCCC1)c1cc(Br)cc(Br)c1O`: > 40 µM (active).
Turning to `CC#CC(=O)N1CCC(n2nccc2NC(=O)c2ccc3c(c2)OCO3)CC1`, the IC50 in test [3] is > 80 µM (inactive).
For `CCN(CC)c1ccc(/C=N/NC(=O)c2cccc(S(=O)(=O)Nc3ccccc3OC)c2)c(O)c1`, the EC50 in “cells [11]” is 2.89 µM (active); in “cells [12]” it was 85.3 µM (active). Also, in [3], the IC50 is > 80 µM (inactive). Besides, in the test with INS1, the AC50 was 0.237 µM (active).
As to `CCCn1c(=O)c(C(=O)NCCc2ccc(Cl)cc2)c(O)c2ccccc21`, the IC50 in the test with H9c2 is > 79 µM (inactive).
`Oc1ccccc1C=NNC(=S)Nc1ccc(F)cc1`: the IC50 at Nonstructural protein 1 was 12.7 µM (active).

For the origin of these results see ChEMBL document CHEMBL1201862, “PubChem BioAssay data set” (2004).
